In patent US10689354B2, “Aminoazole derivative” (Teijin Pharma Limited, priority 2015, dated 2020):

Assays:
[1] = target: T1, androgen receptor (AR-LBD) (Rattus norvegicus, UniProt P15207); experiment: Evaluation of androgen receptor affinity (PolarScreen Androgen Receptor Competitor Assay Kit, Red; fluorescence polarization); settings: 22° C. for 5 hours, relative to binding rate of 1 μM DHT, read-out: AR affinity (pEC50) (converted)
T1 construct: 5 μL of 2×AR-LBD/Fluoromone AL Red Complex contained in the kit; purchased Invitrogen
T1 sequence (P15207 651-882 limits assumed): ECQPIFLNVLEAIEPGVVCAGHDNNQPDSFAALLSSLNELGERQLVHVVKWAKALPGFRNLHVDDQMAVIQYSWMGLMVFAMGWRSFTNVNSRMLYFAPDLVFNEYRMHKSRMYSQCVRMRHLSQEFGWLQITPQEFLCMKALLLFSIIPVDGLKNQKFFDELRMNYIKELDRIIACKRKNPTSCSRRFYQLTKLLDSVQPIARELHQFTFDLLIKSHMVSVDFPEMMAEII
How it was run: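 FP competition: compound + AR-LBD/Fluoromone AL Red tracer complex, 22° C, 5 h. Reference 1 μM DHT binding rate; pEC50 by 4-parameter fit.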

human androgen receptor = target: T2, human androgen receptor (Homo sapiens, UniProt P10275); experiment: Reporter assay of an androgen receptor responsive sequence (luciferase, transiently transfected HEK293 cells); type: cell-based; settings: 24 hours incubation, relative to activity of 100 nM DHT, read-out: AR transcriptive activity (pEC50) (converted)
T2 construct: expressed in transfected cells; host or cells: HEK293
T2 sequence (P10275 1-920): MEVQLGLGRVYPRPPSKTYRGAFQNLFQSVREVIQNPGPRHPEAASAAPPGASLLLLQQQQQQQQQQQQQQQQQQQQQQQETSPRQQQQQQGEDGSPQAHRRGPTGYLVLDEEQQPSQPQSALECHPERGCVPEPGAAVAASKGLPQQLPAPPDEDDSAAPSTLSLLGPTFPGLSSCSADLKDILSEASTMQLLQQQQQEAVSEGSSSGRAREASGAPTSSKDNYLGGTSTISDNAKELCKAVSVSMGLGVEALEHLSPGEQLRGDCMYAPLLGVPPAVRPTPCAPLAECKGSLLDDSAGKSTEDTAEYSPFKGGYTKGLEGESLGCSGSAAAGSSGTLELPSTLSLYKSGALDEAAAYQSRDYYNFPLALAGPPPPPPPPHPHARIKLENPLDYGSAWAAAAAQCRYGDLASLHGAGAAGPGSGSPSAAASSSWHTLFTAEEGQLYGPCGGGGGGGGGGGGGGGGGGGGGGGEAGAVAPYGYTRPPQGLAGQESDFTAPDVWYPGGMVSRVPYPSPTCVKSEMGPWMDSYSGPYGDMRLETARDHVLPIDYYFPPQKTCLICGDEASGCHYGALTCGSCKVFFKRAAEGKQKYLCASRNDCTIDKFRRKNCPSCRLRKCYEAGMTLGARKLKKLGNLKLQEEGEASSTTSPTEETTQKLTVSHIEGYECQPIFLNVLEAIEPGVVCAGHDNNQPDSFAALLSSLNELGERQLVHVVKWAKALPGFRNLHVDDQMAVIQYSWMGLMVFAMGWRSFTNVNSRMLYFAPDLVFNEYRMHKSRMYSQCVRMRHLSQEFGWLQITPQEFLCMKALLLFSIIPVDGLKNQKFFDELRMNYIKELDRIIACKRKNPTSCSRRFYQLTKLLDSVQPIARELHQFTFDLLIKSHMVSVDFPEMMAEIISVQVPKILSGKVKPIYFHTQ
Method: Reporter Assay of an Androgen Receptor Responsive Sequence
To examine the agonist activity of compounds for androgen, a reporter assay using an androgen receptor responsive sequence was conducted.
Using Lipofectamine 2000 (Invitrogen), a plasmid mixture (pGL4-ARE (200 ng/well), pcDNA3-hAR (20 ng/well), pRL-TK (Promega) (150 ng/well)) was transiently transfected into HEK293 cells. The contents of the plasmid (mixture) are as follows:
pGL4-ARE is a reporter plasmid containing firefly luciferase sequence under the control of androgen receptor responsive sequence; pcDNA3-hAR is a plasmid containing full-length sequence of human androgen receptor under the constant control of CMV promoter; pRL-TK is a plasmid containing Renilla Luciferase sequence under the control of herpes simplex virus thymidine kinase and used as an internal standard for evaluations of transfection efficiency and compound toxicity.
After the incubation of Lipofectamine 2000 and the plasmid mixture in Opti-MEM for 20 minutes, the mixture was mixed with a cell suspension prepared with Opti-MEM in the similar way, and the cell suspension was plated to a 96-well plate at 20000 cells/well. The transfection was conducted by incubating the plates under the condition of 5% CO2 at 37° C. for 3 hours. Three hours after the transfection, the culture medium was removed and a compound solution prepared by DMEM supplemented with 5% FBS and treated with charcoal was added, and the mixture was incubated under the condition of 5% CO2 at 37° C. for 24 hours. After the incubation with the compound, luciferase activities were measured with a luminometer using Dual-Glo™ Luciferase Assay System (Promega). The measurement of the luciferase activities was performed in accordance with the protocol recommended by Promega. The activity of the compound was determined by comparing to the activity of 100 nM of DHT, and quantified the logarithm value (pEC50) of reciprocal value of the effective concentration of the compound which is equal to 50% of the activity value by applying a 4 parameter goodness-of-fit calculation.

Row | Compound | EC50 [1] [nM] | EC50 (human androgen receptor) [nM]
1 | CS(=O)(=O)NC(=O)c1nc(N(Cc2ccc(F)cn2)c2ccc(C#N)cc2)sc1Br [Compound 640, 5-bromo-2-[4-cyano-N-[(5-fluoro-2-pyridyl)methyl]anilino]-N-methylsulfonyl-thiazole-4-carboxamide] | 398 | 316
2 | CCS(=O)(=O)NC(=O)c1nc(N(CCC2CCCCC2)Cc2ccc(OC(F)(F)F)cc2)sc1C [Compound 733, 2-[2-cyclohexylethyl-[[4-(trifluoromethoxy)phenyl]methyl]amino]-N-ethylsulfonyl-5-methyl-thiazole-4-carboxamide] | 200 | > 10000
3 | Cc1sc(N(Cc2ccc3nsnc3c2)c2ccc(C#N)cc2)nc1C(=O)NS(C)(=O)=O [Compound 114, 2-[N-(2,1,3-benzothiadiazole-5-ylmethyl)-4-cyano-anilino]-5-methyl-N-methylsulfonyl-thiazole-4-carboxamide] | 126 | 158
4 | Cc1sc(N(Cc2ccc(OC3CCCC3)cc2)c2ccc(C#N)cc2)nc1C(=O)NS(C)(=O)=O [Compound 581, 2-[4-cyano-N-[[4-(cyclopentoxy)phenyl]methyl]anilino]-5-methyl-N-methylsulfonyl-thiazole-4-carboxamide] | 25.1 | 501
5 | Cc1sc(N(Cc2ccc(F)c(C(F)(F)F)c2)c2ccc(C#N)cc2)nc1C(=O)NS(C)(=O)=O [Example 173, 2-[4-cyano-N-[[4-fluoro-3-(trifluoromethyl)phenyl]methyl]anilino]-5-methyl-N-methylsulfonyl-thiazole-4-carboxamide] | 25.1 | 79.4
6 | COCCCS(=O)(=O)NC(=O)c1nc(N(Cc2ncc(C(F)(F)F)cc2F)c2ccc(C#N)cc2)sc1C [Example 171, 2-[4-cyano-N-[[3-fluoro-5-(trifluoromethyl)-2-pyridyl]methyl]anilino]-N-(3-methoxypropylsulfonyl)-5-methyl-thiazole-4-carboxamide] | 126 | 631
7 | Cc1sc(N(Cc2ccco2)c2ccc(C#N)cc2)nc1C(=O)NS(C)(=O)=O [Compound 87, 2-[4-cyano-N-(2-furylmethyl)anilino]-5-methyl-N-methylsulfonyl-thiazole-4-carboxamide] | 158 | 1000
8 | Cc1sc(N(Cc2ccc(Br)c(Cl)c2)c2ccc(C#N)cc2)nc1C(=O)NS(C)(=O)=O [Compound 528, 2-[N-[(4-bromo-3-chloro-phenyl)methyl]-4-cyano-anilino]-5-methyl-N-methylsulfonyl-thiazole-4-carboxamide] | > 2000 | 7940
9 | Cc1sc(N(Cc2cccc(N3CCCC3)c2)c2ccc(C#N)cc2)nc1C(=O)NS(C)(=O)=O [Example 216, 2-[4-cyano-N-[(3-pyrrolidin-1-ylphenyl)methyl]anilino]-5-methyl-N-methylsulfonyl-thiazole-4-carboxamide] | 63.1 | 1260
10 | CS(=O)(=O)NC(=O)c1nc(N(Cc2ccc(F)cc2)c2ccc(C#N)cc2)sc1Cl [Example 262, 5-chloro-2-[4-cyano-N-[(4-fluorophenyl)methyl]anilino]-N-methylsulfonyl-thiazole-4-carboxamide] | 50.1 | 39.8
11 | CCc1oc(N(Cc2ccc(Cl)cc2)c2ccc(C#N)cc2)nc1C(=O)NS(C)(=O)=O [Compound 623, 2-[N-[(4-chlorophenyl)methyl]-4-cyano-anilino]-5-ethyl-N-methylsulfonyl-oxazole-4-carboxamide] | 31.6 | 158
12 | COCCOc1ccc(CN(c2ccc(C#N)cc2)c2nc(C(=O)NS(C)(=O)=O)c(C)s2)cc1 [Compound 566, 2-[4-cyano-N-[[4-(2-methoxyethoxy)phenyl]methyl]anilino]-5-methyl-N-methylsulfonyl-thiazole-4-carboxamide] | 200 | 1580
13 | Cc1oc(N(CCc2ccc(C#N)cc2)Cc2ccc(F)cc2)nc1C(=O)NS(C)(=O)=O [Compound 552, 2-[2-(4-cyanophenyl)ethyl-[(4-fluorophenyl)methyl]amino]-5-methyl-N-methylsulfonyl-oxazole-4-carboxamide] | 79.4 | 501
14 | CS(=O)(=O)NC(=O)c1nc(N(Cc2ccccc2)c2ccc(C#N)cc2)sc1C(F)F [Example 284, 2-(N-benzyl-4-cyano-anilino)-5-(difluoromethyl)-N-methylsulfonyl-thiazole-4-carboxamide] | 126 | > 10000
15 | COc1ccc(CN(c2ccc(C#N)cc2)c2nc(C(=O)NS(C)(=O)=O)c(C)s2)c(F)c1F [Compound 112, 2-[4-cyano-N-[(2,3-difluoro-4-methoxy-phenyl)methyl]anilino]-5-methyl-N-methylsulfonyl-thiazole-4-carboxamide] | 31.6 | 79.4
16 | COCCCS(=O)(=O)NC(=O)c1nc(N(Cc2nc(C3CC3)no2)c2ccc(C#N)cc2)sc1C [Example 197, 2-[4-cyano-N-[(3-cyclopropyl-1,2,4-oxadiazol-5-yl)methyl]anilino]-N-(3-methoxypropylsulfonyl)-5-methyl-thiazole-4-carboxamide] | 1260 | 3980
17 | Cc1sc(N(CCC(C)(C)C)c2ccc(C#N)cc2)nc1C(=O)NS(C)(=O)=O [Compound 90, 2-[4-cyano-N-(3,3-dimethylbutyl)anilino]-5-methyl-N-methylsulfonyl-thiazole-4-carboxamide] | 398 | > 10000
18 | Cc1sc(N(Cc2ccc(-c3ccc(F)cc3)cc2)c2ccc(C#N)cc2)nc1C(=O)NS(C)(=O)=O [Compound 141, 2-[4-cyano-N-[[4-(4-fluorophenyl)phenyl]methyl]anilino]-5-methyl-N-methylsulfonyl-thiazole-4-carboxamide] | 50.1 | 316
19 | Cc1sc(N(Cc2ccc(OCc3ccccn3)cc2)c2ccc(C#N)cc2)nc1C(=O)NS(C)(=O)=O [Compound 568, 2-[4-cyano-N-[[4-(2-pyridylmethoxy)phenyl]methyl]anilino]-5-methyl-N-methylsulfonyl-thiazole-4-carboxamide] | 158 | 794
20 | Cc1sc(N(Cc2ccccc2)c2ccc(C#N)cc2)nc1C(=O)NS(=O)(=O)CC(C)C [Compound 371, 2-(N-benzyl-4-cyano-anilino)-N-isobutylsulfonyl-5-methyl-thiazole-4-carboxamide] | 200 | > 10000
21 | CC(C)c1sc(N(Cc2ccccc2)c2ccc(C#N)cc2)nc1C(=O)NS(C)(=O)=O [Compound 600, 2-(N-benzyl-4-cyano-anilino)-5-isopropyl-N-methylsulfonyl-thiazole-4-carboxamide] | 100 | > 10000
